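Grown in 96-well plates, cells were treated for 48 hours with each compound at five concentrations. Insufficient inhibition: endpoint recorded as highest concentration tested. At the TGI there is no net growth.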
Legend:
Test in all cases: NCI tumour cell line growth inhibition, 48 h
A498 renal = test system: A498 renal
A549 NSCLC = test system: A549 NSCLC
DU-145 prostate = test system: DU-145 prostate
EKVX NSCLC = test system: EKVX NSCLC
HT29 colon = test system: HT29 colon
NCI-H23 lung = test system: NCI-H23 lung
NCI-H460 lung = test system: NCI-H460 lung
NCI-H522 lung = test system: NCI-H522 lung
NCI/ADR-RES ovarian = test system: NCI/ADR-RES ovarian
OVCAR-3 ovarian = test system: OVCAR-3 ovarian
HOP-62 NSCLC = test system: HOP-62 NSCLC

| Structure (SMILES) | TGI (A498 renal) | TGI (A549 NSCLC) | TGI (DU-145 prostate) | TGI (EKVX NSCLC) | TGI (HT29 colon) | TGI (NCI-H23 lung) | TGI (NCI-H460 lung) | TGI (NCI-H522 lung) | TGI (NCI/ADR-RES ovarian) | TGI (OVCAR-3 ovarian) | TGI (HOP-62 NSCLC) |
| --- | --- | --- | --- | --- | --- | --- | --- | --- | --- | --- | --- |
| O=P(O)(O)CC1OC(CO)C(O)C1O (stereo unspecified) | > 100 µM | > 100 µM | > 100 µM | > 100 µM | > 100 µM | > 100 µM | > 100 µM | > 100 µM | > 100 µM | > 100 µM |  |
| O=c1oc2ccccc2n1CCCn1c(=O)oc2ccccc21 | > 100 µM |  | > 100 µM | > 100 µM | > 100 µM | > 100 µM | > 100 µM |  | > 100 µM | > 100 µM | > 100 µM |
| CNC(=O)OCC1=C(COC(=O)NC)C(C)N(c2ccccc2)C1 (stereo unspecified) | 7.51 µM | > 100 µM | > 100 µM | > 100 µM | 53.7 µM | > 100 µM | > 100 µM |  | > 100 µM | 92.7 µM | > 100 µM |
| COc1ccc(S(=O)(=O)Nc2ccc(-c3csc(N4C(=O)/C(=C/c5cccs5)N=C4c4ccccc4)n3)cc2)cc1Cl | 65.2 µM | > 100 µM | > 100 µM |  | > 100 µM | 59.6 µM | > 100 µM | 62.8 µM | > 100 µM | > 100 µM | 45.8 µM |
| COc1ccc2c(c1)C=C(C(C)(C)C)NS2(=O)=O | > 100 µM | > 100 µM |  | > 100 µM | > 100 µM | > 100 µM | > 100 µM | > 100 µM |  | > 100 µM | > 100 µM |
| C[C@H](CO)C1=CC(C#C[Si](C)(C)C)N(C(=O)Oc2ccccc2)c2ccccc21 (stereo partly specified) |  | 26.8 µM | 31.7 µM | 29.1 µM | 20.5 µM | 15.1 µM | 28.6 µM | 15.7 µM | 12.6 µM | 13.5 µM | 19.4 µM |
| N#CC1=C(S)N(C2OC(CO)C(O)C(O)C2O)C(c2ccccc2)=CC1c1cccs1 (stereo unspecified) | > 10 µM | 45.6 µM | > 10 µM |  | 37.5 µM | > 100 µM | 32.9 µM | 47.5 µM | > 100 µM | 80.2 µM | 57 µM |
| COc1cc2c3cc1Oc1c(OC)c(OC)cc4c1C(Cc1ccc(O)c(c1)-c1cc(ccc1OC)CC3N(C)CC2)N(C)CC4 (stereo unspecified) | 46.3 µM | > 100 µM | > 100 µM | 91.1 µM | 50.4 µM | 51.5 µM | 51.2 µM | 31.1 µM | 73.9 µM | > 100 µM |  |
| CC1(C)CC[C@]2(C(=O)O)CC[C@]3(C)C(=CC[C@@H]4[C@@]5(C)CC[C@H](OC6OC(CO)C(O)C(O)C6O)C(C)(C)[C@@H]5CC[C@]43C)[C@@H]2C1 (stereo partly specified) | 3.82 µM | 3.08 µM | 4.49 µM |  | 2.98 µM | 3.52 µM | 14.3 µM | 2.91 µM | 22.9 µM | 3.01 µM | 3.14 µM |
| C(#C[C@@]12CCC[C@@H]1N(Cc1ccccc1)CO2)c1ccc2c(c1)OCO2 | > 100 µM | > 100 µM | > 100 µM | > 100 µM | > 100 µM | > 100 µM | > 100 µM |  | > 100 µM | > 100 µM | > 100 µM |
| CN(C)c1c(C2CC(O)C(CO)O2)c(=O)c1=O (stereo unspecified) | > 100 µM | > 100 µM | > 100 µM | > 100 µM | > 100 µM |  | > 100 µM | > 100 µM | > 100 µM | > 100 µM | > 100 µM |
| CCSc1nc(C)nc2c1sc1nc3ccccc3n12 | > 100 µM | > 100 µM | > 100 µM | > 100 µM | > 100 µM | > 100 µM | > 100 µM | > 100 µM | > 100 µM | > 100 µM |  |
| O=C(NNC(=O)c1c(Cl)c(Cl)c(Cl)c(Cl)c1-c1nc2ccccc2[nH]1)c1ccc(Cl)cc1 | > 100 µM | > 100 µM | > 100 µM | > 100 µM | > 100 µM | > 100 µM |  | > 100 µM | > 100 µM | > 100 µM | > 100 µM |
| Cc1cc(=O)n2nc(CSc3n[nH]c(=S)s3)sc2n1 |  | > 100 µM | > 100 µM | > 100 µM | > 100 µM | > 100 µM | > 100 µM | > 100 µM | > 100 µM | > 100 µM | > 100 µM |
| C=CCN(c1cc(OC)c2c(c1[N+](=O)[O-])C(C)(SC)C(=O)N2)S(C)(=O)=O (stereo unspecified) | > 100 µM | > 100 µM | > 100 µM |  | > 100 µM | > 100 µM | > 100 µM | > 100 µM | > 100 µM |  |  |
| S=C(S)N1CCN(c2ccccc2)CC1 | > 100 µM | > 100 µM | > 100 µM | > 100 µM | > 100 µM |  |  | > 100 µM | > 100 µM | > 100 µM | > 100 µM |
| Cc1ccc(N2C3=C(CC4=C2CC(C)(C)CC4=O)C(=O)CC(C)(C)C3)cc1 | > 100 µM | > 100 µM | > 100 µM | > 100 µM | > 100 µM | > 100 µM | > 100 µM |  | > 100 µM | > 100 µM | > 100 µM |
| Cc1c(C#N)c(N)n(C2OC(CO)C(O)C(O)C2O)c(=S)c1C#N (stereo unspecified) | > 100 µM | > 100 µM | > 100 µM | > 100 µM | > 100 µM | > 100 µM | > 100 µM | > 100 µM |  | > 100 µM | > 100 µM |
| C/C(=N\Nc1nc2ccccc2o1)c1cc2ccccc2cn1 | > 100 µM | 9.46 µM | 39.7 µM | 1.25 µM |  | 8.3 µM | > 100 µM |  |  | 13.2 µM | 15.6 µM |
| CC(c1ccccc1)C(O)S(=O)(=O)O (stereo unspecified) | > 100 µM | > 100 µM |  | > 100 µM | > 100 µM | > 100 µM | > 100 µM | > 100 µM |  | > 100 µM |  |
| C[C@]12CC/C(=N\O)C=C1CC[C@@H]1[C@@H]2CC[C@]2(C)C(=N/O)/C(=C/c3ccncc3)C[C@@H]12 |  | > 100 µM | > 100 µM | > 100 µM | 42.1 µM | > 100 µM | 85 µM | 99.2 µM | > 100 µM | 72.3 µM | > 100 µM |

From PubChem BioAssay (NCI)
